# Source: ChEMBL document CHEMBL3885881, “DrugMatrix”
# Species on record: Rattus norvegicus
# Test: DrugMatrix - Regimen: Daily Repeat
# Type: toxicity, organism-based, Sprague-Dawley
# Parameters: regimen Daily Repeat, gender Male, age 6-8 weeks
# Settings: in vivo, sc, route subcutaneous, […]; for ABSOLUTE BASOPHIL / ABSOLUTE EOSINOPHIL / ABSOLUTE LYMPHOCYTE / ABSOLUTE MONOCYTE / ABSOLUTE SEGMENTED NEUTROPHIL / BASOPHIL / EOSINOPHIL / ERYTHROCYTE COUNT / HEMATOCRIT / LEUKOCYTE COUNT / MEAN CORPUSCULAR HEMOGLOBIN / MEAN CORPUSCULAR HEMOGLOBIN CONCENTRATION / MEAN CORPUSCULAR VOLUME / MONOCYTE / NEUTROPHIL / NUCLEATED RED BLOOD CELLS / PLATELET COUNT: tissue Blood; for ALANINE AMINOTRANSFERASE / ALBUMIN / ALKALINE PHOSPHATASE / ASPARTATE AMINOTRANSFERASE / BLOOD UREA NITROGEN / CHLORIDE / CHOLESTEROL / CREATINE PHOSPHOKINASE / CREATININE / GLUCOSE / LACTATE DEHYDROGENASE / LIPASE / PHOSPHORUS / POTASSIUM / TOTAL BILIRUBIN / URIC ACID: tissue Plasma
# [1] = 79 mg/kg, 120 h, dose level High, time 5 day
# [2] = 72 h, dose 1.3 mg/Kg, dose level Low, time 3 day
# [3] = 120 h, dose 1.3 mg/Kg, dose level Low, time 5 day
smiles,measurement,setting,value
C[C@H]1C[C@H]2[C@@H]3CCC4=CC(=O)C=C[C@]4(C)[C@@]3(F)[C@@H](O)C[C@]2(C)[C@@]1(O)C(=O)CO [BETAMETHASONE],ABSOLUTE BASOPHIL,[1],0 CELLS/uL
same,ABSOLUTE EOSINOPHIL,[1],0 CELLS/uL
same,ABSOLUTE LYMPHOCYTE,[1],513.67 CELLS/uL
same,ABSOLUTE MONOCYTE,[1],201.67 CELLS/uL
same,ABSOLUTE SEGMENTED NEUTROPHIL,[1],19451.33 CELLS/uL
same,BASOPHIL,[1],0%
same,EOSINOPHIL,[1],0%
same,ERYTHROCYTE COUNT,[1],5.57 x10E6/uL
same,HEMATOCRIT,[1],34.53%
same,LEUKOCYTE COUNT,[1],20.17 x10E3/uL
same,MEAN CORPUSCULAR HEMOGLOBIN,[1],23.77 pg
same,MEAN CORPUSCULAR HEMOGLOBIN CONCENTRATION,[1],38.47 G/DL
same,MEAN CORPUSCULAR VOLUME,[1],61.87 fL
same,MONOCYTE,[1],1%
same,NEUTROPHIL,[1],95%
same,NUCLEATED RED BLOOD CELLS,[1],0 /100WBC
same,PLATELET COUNT,[1],893 x10E3/uL
same,ALANINE AMINOTRANSFERASE,[1],251.67 u/L
same,ALBUMIN,[1],4.5 G/DL
same,ALKALINE PHOSPHATASE,[1],329 u/L
same,ASPARTATE AMINOTRANSFERASE,[1],307.33 u/L
same,BLOOD UREA NITROGEN,[1],21.67 mg/dL
same,CHLORIDE,[1],93.67 MEQ/L
same,CHOLESTEROL,[1],105 mg/dL
same,CREATINE PHOSPHOKINASE,[1],200.33 u/L
same,CREATININE,[1],0.3 mg/dL
same,GLUCOSE,[1],505.67 mg/dL
same,LACTATE DEHYDROGENASE,[1],602 u/L
same,LIPASE,[1],11.33 u/L
same,PHOSPHORUS,[1],11.1 mg/dL
same,POTASSIUM,[1],5.39 MEQ/L
same,TOTAL BILIRUBIN,[1],0.23 mg/dL
same,URIC ACID,[1],1 mg/dL
same,ABSOLUTE BASOPHIL,[2],0 CELLS/uL
same,ABSOLUTE EOSINOPHIL,[2],15.33 CELLS/uL
same,ABSOLUTE LYMPHOCYTE,[2],4290.33 CELLS/uL
same,ABSOLUTE MONOCYTE,[2],15.33 CELLS/uL
same,ABSOLUTE SEGMENTED NEUTROPHIL,[2],845.67 CELLS/uL
same,BASOPHIL,[2],0%
same,EOSINOPHIL,[2],0.33%
same,ERYTHROCYTE COUNT,[2],5.47 x10E6/uL
same,HEMATOCRIT,[2],33.27%
same,LEUKOCYTE COUNT,[2],5.17 x10E3/uL
same,MEAN CORPUSCULAR HEMOGLOBIN,[2],24.57 pg
same,MEAN CORPUSCULAR HEMOGLOBIN CONCENTRATION,[2],40.37 G/DL
same,MEAN CORPUSCULAR VOLUME,[2],60.9 fL
same,MONOCYTE,[2],0.33%
same,NEUTROPHIL,[2],17%
same,NUCLEATED RED BLOOD CELLS,[2],0 /100WBC
same,PLATELET COUNT,[2],1195.33 x10E3/uL
same,ALANINE AMINOTRANSFERASE,[2],49.67 u/L
same,ALBUMIN,[2],5.1 G/DL
same,ALKALINE PHOSPHATASE,[2],401.67 u/L
same,ASPARTATE AMINOTRANSFERASE,[2],97 u/L
same,BLOOD UREA NITROGEN,[2],15 mg/dL
same,CHLORIDE,[2],98.67 MEQ/L
same,CHOLESTEROL,[2],79.33 mg/dL
same,CREATINE PHOSPHOKINASE,[2],415.33 u/L
same,CREATININE,[2],0.19 mg/dL
same,GLUCOSE,[2],120 mg/dL
same,LACTATE DEHYDROGENASE,[2],165.33 u/L
same,LIPASE,[2],11 u/L
same,PHOSPHORUS,[2],11.13 mg/dL
same,POTASSIUM,[2],6.2 MEQ/L
same,TOTAL BILIRUBIN,[2],0.17 mg/dL
same,URIC ACID,[2],0.9 mg/dL
same,ABSOLUTE BASOPHIL,[3],0 CELLS/uL
same,ABSOLUTE EOSINOPHIL,[3],75.67 CELLS/uL
same,ABSOLUTE LYMPHOCYTE,[3],4789.67 CELLS/uL
same,ABSOLUTE MONOCYTE,[3],25 CELLS/uL
same,ABSOLUTE SEGMENTED NEUTROPHIL,[3],1976.33 CELLS/uL
same,BASOPHIL,[3],0%
same,EOSINOPHIL,[3],1%
same,ERYTHROCYTE COUNT,[3],6.27 x10E6/uL
same,HEMATOCRIT,[3],38.47%
same,LEUKOCYTE COUNT,[3],6.87 x10E3/uL
same,MEAN CORPUSCULAR HEMOGLOBIN,[3],24.07 pg
same,MEAN CORPUSCULAR HEMOGLOBIN CONCENTRATION,[3],39.23 G/DL
same,MEAN CORPUSCULAR VOLUME,[3],61.3 fL
same,MONOCYTE,[3],0.33%
same,NEUTROPHIL,[3],30.33%
same,NUCLEATED RED BLOOD CELLS,[3],0 /100WBC
same,PLATELET COUNT,[3],1459.67 x10E3/uL
same,ALANINE AMINOTRANSFERASE,[3],71 u/L
same,ALBUMIN,[3],5.1 G/DL
same,ALKALINE PHOSPHATASE,[3],397 u/L
same,ASPARTATE AMINOTRANSFERASE,[3],114 u/L
same,BLOOD UREA NITROGEN,[3],17.33 mg/dL
same,CHLORIDE,[3],102.67 MEQ/L
same,CHOLESTEROL,[3],70.33 mg/dL
same,CREATINE PHOSPHOKINASE,[3],195.67 u/L
same,CREATININE,[3],0.16 mg/dL
same,GLUCOSE,[3],164.67 mg/dL
same,LACTATE DEHYDROGENASE,[3],354.67 u/L
same,LIPASE,[3],9.67 u/L
same,PHOSPHORUS,[3],13.03 mg/dL
same,POTASSIUM,[3],7 MEQ/L
same,TOTAL BILIRUBIN,[3],0.2 mg/dL
same,URIC ACID,[3],1.8 mg/dL
